pKi: −log10 of the molar value. Counter-ions that a name gives are not always drawn.
Assays:
[1] = target: T1, human norepinephrine transporter (Homo sapiens, UniProt P23975); assay: Norepinephrine transporter binding assay ([3H]desipramine competition, MDCK cell membranes); settings: competition with [3H]desipramine 2 nM, 2 h on ice; read-out: NET Affinity
T1 construct: expressed in transfected cells; host or cells: MDCK cells (membrane preparation)
Protocol: Individual inhibitors were dissolved in incubation buffer (50 mM Tris-HCl, 10% sucrose, pH 7.4) at appropriate dilutions. The inhibitor solutions were added to the wells of a microtiter plate (40 μL/well) in triplicate. Each well of test agent (and appropriate control wells) was treated with a mixture of MDCK cell membrane preparation (22.4 μg of membrane) expressing human norepinephrine transporter (Bmax=3.7 pmol norepinephrine transporter/mg protein), and [^3H]desipramine (2 nM, 64.8 Ci/mmol) in a total volume of 0.2 mL. The resulting mixtures were incubated for 2 h on ice.
A 96 well GF/C filter plate was presoaked with coating buffer (0.5% polyvinylpyrrolidine and 0.1% Tween 20) for 2 h at room temperature, then washed with incubation buffer (6×0.2 mL). The competition reactions were transferred to the coated plate and filtered. The filter plate was washed (6×0.2 mL) with ice cold wash buffer (50 mM Tris-HCl, 0.9% NaCl, pH 7.4) then dried overnight and treated with 25 μL scintillation fluid for analysis on a plate reader (Microbeta TriLux 1450 LSC and Luminescence counter, Perkin Elmer, Shelton Conn.).

[2] = test system: PC-12 cells; assay: PC-12 binding assay (cell uptake with or without desipramine); assay type: cell-based, rat; settings: 0.1 μCi test agent, 60 min at 37° C.; for PC-12 (% bound) Block: with 1 μM desipramine (nonspecific uptake); for PC-12 (% bound) Control: without desipramine (total uptake)
Protocol: Rat pheochromocytoma cell line (PC-12) were purchased from the American Type Culture Collection (ATCC) then cultured in collagen-coated flasks (BD Bio Coat Collagen Type 1, BD Biosciences) using a growth media composed of F-12 K media, 2 mM L-glutamine, 15% horse serum, 2.5% fetal bovine serum (FBS) and 1% penicillin-streptomycin.
Prepared PC-12 cells were seeded into 6-well plates at a density of 1×10^6 cells/well with 2 mL of growth media and maintained 24 h at 37° C. under a 5% CO2 atmosphere. The media was exchanged and each well treated with 0.1 μCi test agent, with or without 1 μM desipramine. The resulting mixture was incubated for 60 min at 37° C. and 5% CO2 then centrifuged at 500×g for 3 min and washed with PBS buffer. Radioactivity associated with the cells was then measured, and total uptake determined in the wells without desipramine; nonspecific uptake was measured in the associated wells containing desipramine. The specific NET mediated cell uptake is calculated as percent total uptake minus percent nonspecific uptake.

[3] = Tissue distribution in rats; assay type: in vivo; settings: bolus iv injection
Protocol: (§1) Male Sprague Dawley rats (300-500 g, Taconic), and male New Zealand rabbits (3-4 kg, Covance) were used in accordance with our Institutional Animal Care and Use Committee. Rats were anesthetized with sodium pentobarbital (50 mg/kg, i.p.) and the left femoral vein cannulated with PESO tubing for drug injection. Rabbits were pre-sedated with acepromazine (0.75 mg/kg i.m.) then anesthetized with ketamine (40 mg/kg, i.m.) and xylazine (8 mg/kg, i.m); the marginal ear vein was cannulated for drug injection. Additional doses of anesthetics were given as needed.
(§2) After preparation, each animal received a bolus injection of the test agent via the venous catheter. Rats and rabbits were euthanized after the injection and samples of the blood, heart, lung, liver, spleen, kidney, femur and muscle were collected. All samples were weighed and counted for radioactivity (Wallac Wizard 1480, PerkinElmer Life and Analytical Sciences, Shelton, Conn.); net radioactivity administered in each animal was determined by subtracting the residual activity in both the syringe and venous catheter. Tissue uptake of each agent was determined as a percentage of the injected dose per gram tissue (% ID/g).

[4] = Tissue distribution in rabbits; assay type: in vivo; settings: bolus iv injection
Protocol: as §1, §2

T1 sequence (P23975 whole entry): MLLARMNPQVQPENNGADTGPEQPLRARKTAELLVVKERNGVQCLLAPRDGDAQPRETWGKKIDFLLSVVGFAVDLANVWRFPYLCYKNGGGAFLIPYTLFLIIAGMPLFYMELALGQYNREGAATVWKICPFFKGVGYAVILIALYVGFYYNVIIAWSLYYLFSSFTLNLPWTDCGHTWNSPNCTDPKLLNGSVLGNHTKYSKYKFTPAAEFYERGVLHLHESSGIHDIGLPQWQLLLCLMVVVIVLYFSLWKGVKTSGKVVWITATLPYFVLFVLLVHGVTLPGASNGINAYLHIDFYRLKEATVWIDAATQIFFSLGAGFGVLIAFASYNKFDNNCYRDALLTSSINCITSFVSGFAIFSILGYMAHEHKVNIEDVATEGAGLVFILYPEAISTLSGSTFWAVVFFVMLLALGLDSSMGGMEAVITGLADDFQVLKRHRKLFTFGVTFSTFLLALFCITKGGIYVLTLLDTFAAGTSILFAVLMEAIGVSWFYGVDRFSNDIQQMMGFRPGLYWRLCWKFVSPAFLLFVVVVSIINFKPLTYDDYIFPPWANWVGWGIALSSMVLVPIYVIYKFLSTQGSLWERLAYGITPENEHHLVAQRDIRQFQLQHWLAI

N=C(N)NCCc1c[nH]c2ccc(OCCF)cc12 [Example 21, 1-(2-(5-(2-fluoroethoxy)-1H-indol-3-yl)ethyl)guanidine]
pKi [1]: 5.92
PC-12 (% bound) Block [2]: 0.10 % bound
PC-12 (% bound) Control [2]: 0.10 % bound
Rat Blood [3]: 0.41 % ID/g
Rat Heart [3]: 0.35 % ID/g
Rat Liver [3]: 1.01 % ID/g
Rat Lung [3]: 0.38 % ID/g

N=C(N)NCCc1ccc(CCCF)cc1 [Example 33, 1-(4-(3-fluoropropyl)phenethyl)guanidine]
pKi [1]: 5.40
PC-12 (% bound) Block [2]: 1.50 % bound
PC-12 (% bound) Control [2]: 2.30 % bound
Rat Blood [3]: 0.10 ± 0.01 % ID/g
Rat Heart [3]: 1.94 ± 0.16 % ID/g
Rat Liver [3]: 0.21 ± 0.04 % ID/g
Rat Lung [3]: 0.66 ± 0.11 % ID/g

N=C(N)NCc1ccc2cc(OCCCF)ccc2c1 [Example 12, 1-((6-(3-fluoropropoxy)naphthalen-2-yl)methyl)guanidine]
pKi [1]: 6.85
PC-12 (% bound) Block [2]: 0.50 % bound
PC-12 (% bound) Control [2]: 5.30 % bound
Rat Blood [3]: 0.37 ± 0.05 % ID/g
Rat Heart [3]: 1.93 ± 0.11 % ID/g
Rat Liver [3]: 0.18 ± 0.01 % ID/g
Rat Lung [3]: 2.09 ± 0.08 % ID/g
Rabbit Blood ([4]; blood): 0.04 ± 0.02 % ID/g
Rabbit Heart ([4]; heart): 0.29 ± 0.09 % ID/g
Rabbit Liver ([4]; liver): 0.02 ± 0.01 % ID/g
Rabbit Lung ([4]; lung): 0.28 ± 0.17 % ID/g

N=C(N)NCc1ccc(CCF)cc1 [Example 5, 1-[4-(2-fluoroethyl)benzyl]guanidine]
pKi [1]: 4.73
PC-12 (% bound) Block [2]: 0.90 % bound
PC-12 (% bound) Control [2]: 1.00 % bound
Rat Blood [3]: 0.69 % ID/g
Rat Heart [3]: 1.23 % ID/g
Rat Liver [3]: 0.26 % ID/g
Rat Lung [3]: 0.59 % ID/g

N=C(N)NCc1ccc(CCF)c(Br)c1 [Example 8, 1-(3-bromo-4-(2-fluoroethyl)benzyl)guanidine]
pKi [1]: 4.76
PC-12 (% bound) Block [2]: 0.60 % bound
PC-12 (% bound) Control [2]: 1.30 % bound
Rat Blood [3]: 0.21 % ID/g
Rat Heart [3]: 1.61 % ID/g
Rat Liver [3]: 0.27 % ID/g
Rat Lung [3]: 0.94 % ID/g

N=C1NCC(c2ccc(OCCF)cc2)N1 (centres unmarked) [Example 1, 4-(4-(2-fluoroethoxy)phenyl)imidazolidin-2-imine]
pKi [1]: 5.14
PC-12 (% bound) Block [2]: 0.30 % bound
PC-12 (% bound) Control [2]: 3.1 % bound
Rat Blood [3]: 0.18 % ID/g
Rat Heart [3]: 1.03 % ID/g
Rat Liver [3]: 0.15 % ID/g
Rat Lung [3]: 0.24 % ID/g

N=C1NCC(c2ccc(OCCF)c(Br)c2)N1 (centres unmarked) [Example 2, 4-(3-bromo-4-(2-fluoroethoxy)phenyl)imidazolidin-2-imine, hydrochloric acid salt]
pKi [1]: 4.95
PC-12 (% bound) Block [2]: 0.60 % bound
PC-12 (% bound) Control [2]: 3.20 % bound
Rat Blood [3]: 0.19 % ID/g
Rat Heart [3]: 1.33 % ID/g
Rat Liver [3]: 0.25 % ID/g
Rat Lung [3]: 0.94 % ID/g

Reference: patent US9550000B2, “Compositions, methods, and systems for the synthesis and use of imaging agents” (Lantheus Medical Imaging, Inc., priority 2011, dated 2017)
